Legend:
Puccinia triticina = experiment: Wheat brown rust (PUCCRT) disease control on wheat seedlings; format: in vivo; settings: low volume application, 125.1 g/H; for PUCCRT 1DP, LV activity at 125.1 g/H (% Control rating): 1 Day Protectant; for PUCCRT 3DC, LV activity at 125.1 g/H (% Control rating): 3 Day Curative
Zymoseptoria tritici = experiment: Leaf blotch of wheat (SEPTTR) disease control on wheat seedlings; format: in vivo; parameters: key to SEPTTR 1DP, HV activity at 100 ppm (% control rating) / SEPTTR 3DC, HV activity at 100 ppm (% control rating) / SEPTTR disease control, 1DP / SEPTTR disease control, 3DC / SEPTTR 1DP disease control rating, HV activity / SEPTTR 3DC disease control rating, HV activity / SEPTTR 3DC, LV activity at 125.1 g/H (% Control rating) / SEPTTR 1DP, LV activity at 125.1 g/H (% Control rating) / SEPTTR 1DP disease control rating, LV activity at 125.1 g/H / SEPTTR 3DC disease control rating, LV activity at 125.1 g/H / SEPTTR 3DC disease control rating, HV activity at 100 ppm / SEPTTR 1DP disease control rating, HV activity at 100 ppm / HV activity at 100 ppm SEPTTR 3DC (disease control rating) / HV activity at 100 ppm SEPTTR 1DP (disease control rating) / LV activity at 125.1 g/H SEPTTR 1DP (disease control rating) / LV activity at 125.1 g/H SEPTTR 3DC (disease control rating): A: > 80; B: ≤ 80; C: Not Tested; D: No Activity Observed in the Reported Assay; settings: low volume application, 125.1 g/H; for SEPTTR 1DP, LV activity at 125.1 g/H (% Control rating): 1 Day Protectant; for SEPTTR 3DC, LV activity at 125.1 g/H (% Control rating): 3 Day Curative

| Structure (SMILES) | PUCCRT 1DP, LV activity at 125.1 g/H (% Control rating) (Puccinia triticina) | PUCCRT 3DC, LV activity at 125.1 g/H (% Control rating) (Puccinia triticina) | SEPTTR 1DP, LV activity at 125.1 g/H (% Control rating) (Zymoseptoria tritici) | SEPTTR 3DC, LV activity at 125.1 g/H (% Control rating) (Zymoseptoria tritici) |
| --- | --- | --- | --- | --- |
| COc1ccnc(C(=O)N[C@@H](C)C(=O)O[C@@H](C)[C@H](Oc2ccc(C(F)(F)F)cc2)c2ccccc2)c1OC(C)=O [Cmpd 583] | A (> 80) | B (≤ 80) | A (> 80) | A (> 80) |
| COc1ccnc(C(=O)N[C@H](C(=O)O[C@@H](C)[C@H](Oc2ccc(C(F)(F)F)cc2)c2ccccc2)C(C)C)c1OCOC(C)=O [Cmpd 584] | A (> 80) | B (≤ 80) | A (> 80) | D |
| COc1ccnc(C(=O)N[C@H](C(=O)O[C@@H](C)[C@H](Oc2ccc(C(F)(F)F)cc2)c2ccccc2)C(C)C)c1OC(C)=O [Cmpd 585] | A (> 80) | B (≤ 80) | A (> 80) | D |
| CCC(CC)[C@@H](Oc1cccc(F)c1)[C@H](C)OC(=O)[C@H](C)NC(=O)c1nccc(OC)c1OCOC(C)=O [Cmpd 586] | A (> 80) | A (> 80) | B (≤ 80) | A (> 80) |
| CCC(CC)[C@@H](Oc1ccc(Cl)cc1Cl)[C@H](C)OC(=O)[C@H](C)NC(=O)c1nccc(OC)c1OCOC(C)=O [Cmpd 590] | A (> 80) | B (≤ 80) | B (≤ 80) | B (≤ 80) |
| CCC(CC)[C@@H](Oc1cc(F)ccc1F)[C@H](C)OC(=O)[C@H](C)NC(=O)c1nccc(OC)c1OCOC(C)=O [Cmpd 591] | A (> 80) | A (> 80) | B (≤ 80) | A (> 80) |
| CCC(CC)[C@@H](Oc1ccc(C(F)(F)F)cc1)[C@H](C)OC(=O)[C@H](C)NC(=O)c1nccc(OC)c1OCOC(C)=O [Cmpd 594] | A (> 80) | A (> 80) | A (> 80) | B (≤ 80) |
| CCC(CC)[C@@H](Oc1cccc(-c2ccccc2)c1)[C@H](C)OC(=O)[C@H](C)NC(=O)c1nccc(OC)c1OCOC(C)=O [Cmpd 595] | A (> 80) | B (≤ 80) | A (> 80) | A (> 80) |
| CCC(CC)[C@@H](Oc1ccc(-c2ccccc2)cc1)[C@H](C)OC(=O)[C@H](C)NC(=O)c1nccc(OC)c1OCOC(C)=O [Cmpd 596] | A (> 80) | B (≤ 80) | A (> 80) | B (≤ 80) |
| CCC(CC)[C@@H](Oc1ccc(Cl)cc1Cl)[C@H](C)OC(=O)[C@H](C)NC(=O)c1nccc(OC)c1OC(C)=O [Cmpd 601] | A (> 80) | B (≤ 80) | B (≤ 80) | B (≤ 80) |
| CCC(CC)[C@@H](Oc1cc(F)ccc1F)[C@H](C)OC(=O)[C@H](C)NC(=O)c1nccc(OC)c1OC(C)=O [Cmpd 602] | A (> 80) | A (> 80) | A (> 80) | A (> 80) |
| CCC(CC)[C@@H](Oc1cc(F)cc(Cl)c1)[C@H](C)OC(=O)[C@H](C)NC(=O)c1nccc(OC)c1OC(C)=O [Cmpd 603] | A (> 80) | A (> 80) | A (> 80) | A (> 80) |
| CCC(CC)[C@@H](Oc1ccc(C(F)(F)F)cc1)[C@H](C)OC(=O)[C@H](C)NC(=O)c1nccc(OC)c1OC(C)=O [Cmpd 605] | A (> 80) | B (≤ 80) | A (> 80) | B (≤ 80) |
| CCC(CC)[C@@H](Oc1cccc(-c2ccccc2)c1)[C@H](C)OC(=O)[C@H](C)NC(=O)c1nccc(OC)c1OC(C)=O [Cmpd 606] | A (> 80) | B (≤ 80) | A (> 80) | B (≤ 80) |
| CCC(CC)[C@@H](Oc1ccc(-c2ccccc2)cc1)[C@H](C)OC(=O)[C@H](C)NC(=O)c1nccc(OC)c1OC(C)=O [Cmpd 607] | A (> 80) | B (≤ 80) | A (> 80) | B (≤ 80) |
| COc1ccnc(C(=O)N[C@@H](C)C(=O)O[C@@H](C)[C@H](Oc2ccc(-c3ccccc3)cc2)C(C)C)c1OCOC(C)=O [Cmpd 612] | A (> 80) | B (≤ 80) | D | B (≤ 80) |
| COc1ccnc(C(=O)N[C@@H](C)C(=O)O[C@@H](C)[C@H](Oc2cccc(-c3ccccc3)c2)C(C)C)c1OCOC(C)=O [Cmpd 613] | A (> 80) | A (> 80) | B (≤ 80) | B (≤ 80) |
| COc1ccnc(C(=O)N[C@@H](C)C(=O)O[C@@H](C)[C@H](Oc2ccc(C(F)(F)F)cc2)C(C)C)c1OCOC(C)=O [Cmpd 618] | A (> 80) | A (> 80) | B (≤ 80) | A (> 80) |
| CC[C@H](C)[C@H](NC(=O)c1nccc(OC)c1OCOC(C)=O)C(=O)O[C@@H](C)[C@H](Oc1cc(F)ccc1F)C(C)C [Cmpd 619] | A (> 80) | A (> 80) | D | D |
| CC[C@H](C)[C@H](NC(=O)c1nccc(OC)c1OCOC(C)=O)C(=O)O[C@@H](C)[C@H](Oc1ccc(C(F)(F)F)cc1)C(C)C [Cmpd 620] | B (≤ 80) | B (≤ 80) | D | B (≤ 80) |
| COc1ccnc(C(=O)N[C@@H](C)C(=O)O[C@@H](C)[C@H](Oc2ccc3ccccc3c2)C(C)C)c1OCOC(C)=O [Cmpd 622] | A (> 80) | A (> 80) | D | B (≤ 80) |
